# Columns and labels:
# [1] = tested on: DU145 prostate cancer cells; assay: Cell growth inhibition, cell counting after 72 h; type: cell-based, human
# Text: Each dot is the mean±SD derived from 3 independent assays.
# Irinotecan and topotecan are the only two analogs derived from direct modification of camptothecin (CPT) that are approved by the FDA for cancer treatment in clinical practice. […] In this regard, we obtain one DU145 parental prostate cancer cell line and two DU145-derived sub-lines with Top1 mutations (DU145-RC0.1, DU145-RC1).
# [2] = tested on: HCT116 colon cancer cells; assay: cells; type: cell-based, human
# Method: (§2) Cancer cell viability and growth are determined by MTT assay. […] MTT is used as a colorimetric substrate for measuring cell viability and growth. When cell growth is inhibited, there is an alteration of cellular redox activity, and thus rendering cells unable to reduce the MTT dye. Cells are seeded in 96 well plates overnight and then treated with or without a compound/drug in the presence or absence of an protein molecule inhibitor (e.g. ABCG2 inhibitor ko143) for 48-72 hours, MTT is added to a final concentration 0.5 mg/ml. Cells are continuously incubated in a 5% CO2 incubator at 37° C. for 4 h with MTT and then lysed with a cell lysis buffer (20% SDS, 50% N,N-dimethylformamide, pH 4.7), 100 μl per well, for 4 h in the incubator. Subsequently, cell absorbance in each well is measured at 570 nm with an Ultra Microplate Reader (Bio-Tek Instruments). Results are reported as the mean±SD from 3-5 independent assays at each point. […] After 72 hours, media is removed and cells are harvested using 0.5 ml of 0.25% Trypsin-EDTA. Cells are counted and viability is analyzed on a Vi-CELL XR Cell Viability Analyzer (Beckman Coulter).
# HCT116-G7 cells = assay: cells; type: cell-based, human
# Method: as §2
# HCT116-C8 cells = assay: cells; type: cell-based, human
# Method: as §2
# HIF-1α = assay: Western blot for HIF-1α expression under hypoxia in FaDu cells; type: cell-based, human; conditions: 36 h
# [3] = tested on: ABCC4 or ABCG2 in HCT-8 colon cancer cells; assay: MTT assay of HCT-8 cells transfected with ABCC4 or ABCG2; type: cell-based, human; conditions: 72 hours
# Method: HCT-8 colon cancer cells are transfected with empty vector (pcDNA3.1), ABCC4 or ABCG2 expression vectors as shown. […] Cell growth/viability is then determined by MTT assay.
# HCT-8 cells = assay: Colony formation after 2 h or 6 h drug treatment; type: cell-based, human; conditions: 2 h or 6 h treatment, 2 weeks growth
# Method: Subconfluent SW620, HCT-8, and HCT-116 cells were lysed and analyzed for the expression of MDR1 and ABCG2 using western blots (WB). Actin is the internal control. […] Cell growth/viability was then analyzed by MTT assays. Each time point in the individual curve is the mean±SD from 3 to 5 independent assays. […] Drugs were then washed out and cells were allowed to grow in new medium without drugs for 2 weeks. Cell colonies were stained with crystal violet solution; images were digitally taken. Triplicate results are shown.
# Cell growth is then measured and the data are plotted as percentage of growth inhibition (no drug treatment was set at 0%). […] C. […] Representative cancer cell images were taken with a digital camera under phase-contrast microscope.
# [4] = tested on: FaDu head-&-neck and SW620 CRC tumor xenografts; assay: Xenografts with acquired irinotecan or topotecan resistance; type: in vivo, SCID mice; conditions: FL118 1.5 or 1 mg/kg IP q2d×5
# Method: (§1) Individual tumor curves derived from individual mice are shown. A. Mice with FaDu head-&-neck tumor xenografts were first treated with irinotecan at its maximum tolerated dose (MTD, 100 mg/kg, IP) weekly for 4-5 times (black arrow). […] B. Mice with FaDu tumor xenografts were first treated with topotecan at its MTD (4 mg/kg, IP) via daily×5 schedules for 4 cycles (each black arrow is one cycle). […] C. Mice with SW620 CRC xenografts were first treated with irinotecan at its MTD (IP, weekly×4, black arrow). […] D. Mice with SW620 xenograft tumors were first treated with topotecan at its MTD.
# in vivo = conditions: weekly×4
# Method: as §1
# [5] = Cardiac measurements by ultrasound; type: in vivo, SCID mice; conditions: IV 0.75 mg/kg (½MTD), q2d×4
# Method: Cardiac imaging is performed using a 55 MHz ultrasound transducer system. Calculations are made based on the Simpson's method. Three short axis images and one long axis image of the left ventricle are acquired and used to determine cardiac output, ejection fraction, and stroke volume. […] Measurements are made with a 55 MHz ultrasound probe. Step (a): cardiac output is a measurement of the total volume of blood pumped by the left ventricle per minute. Step (b) ejection fraction measures the percentage of blood that leaves the left ventricle every time it contracts. Step (c) stroke volume measures the volume of blood pumped from the left ventricle with each contraction.
# On the other hand, we have analyzed a comprehensive panel of chemical parameters to determine the potential chemical toxicity including renal and liver toxicity using blood samples from vehicle-treated SCID mice and FL118-treated mice. The analyzed parameters include glucose (GLU), blood urea nitrogen (BUN), creatinine (CREA), inorganic phosphate (PHOS), calcium (CA), total protein (TP), albumin (ALB), alanine aminotransferase (ALT), alkaline phosphatase (ALKP), Gamma-glutamyl transferase (GGT), total bilirubin (TBIL), cholesterol (CHOL), and amylase (AMYL), lipase (LIPA).
# [6] = Lactone ring stability in formulated solution by mass spectrometry; type: physicochemical; conditions: formulated solution on shelf for 30 days at room temperature
# Method: Mass spectrometry (MS) parameters are used as follows. Bruker Esquire, ion trap; Infusion Flow Rate, 5 μl/min; Ion Polarity, Positive; Ion Source Type, ESI; Dry Temp, 300 deg C.; Nebulizer, 8.00 psi; Dry Gas, 7.00 Umin; HV Capillary, 4000 V; HV End Plate, −500 V; Scan Begin, 100.00 m/z; Average, 30; Max Acc Time, 400 us; and ICC Target, 50000. MS scan is in both negative ion mode and positive ion mode.
# [7] = tested on: colorectal cancer PDX (11124, 14528); assay: Colorectal cancer patient-derived xenografts (PDX); set-up: species or system SCID mice; conditions: mouse, in vivo
# Text: Individual PDX were subcutaneously inoculated into SCID mice. […] Individual PDX tumor curves derived from individual mice are shown. […] Two examples of colorectal cancer PDX (11124, 14528) are shown.
# [8] = tested on: human umbilical vein endothelial cells (HUVECS); assay: Cell growth and viability, MTT; type: cell-based; conditions: 72 hours
# cancer cells = assay: Cell growth and viability, MTT; type: cell-based, human; conditions: 72 hours
# Method: Actin is an internal control for equal protein loading. […] Subconfluent cancer cells as shown are treated with a series of concentrations of crolibulin as shown (0-100 μM) for 72 hours. Cell growth and viability are determined via MTT assay. Each curve is the mean±SD from 4 independent assays.
# Crolibulin is an anticancer drug that targets endothelial cells of the cancer vasculature system. Therefore, crolibulin is considered as a vascular disrupt agent (VDA).
# PARP cleavage = conditions: p53 null versus p53 wild type HCT116
# Method: Actin is used as internal controls for total protein loading.
# After the lysates are cleared by centrifugation at 15,000 g for 20 minutes at 4° C., the total protein is determined using Bio-Rad protein assay solution. Up to 50 μg of total protein is denatured in 2×SDS sample loading buffer for 5 minutes at 95° C., separated on 10-15% SDS-PAGE gels, and electrotransferred to the Pure Nitrocellulose Membrane (Bio-Rad, Hercules, Calif.) using semi-dry electrophoretic transfer. After the nonspecific binding sites on the membranes are blocked with 5% skim milk in TBS-T (20 mM Tris-HCl pH 7.5, 0.137 M NaCl, and 0.01% Tween 20) for 3 hours at room temperature with constant shaking, the membranes are incubated in TBS-T containing the relevant primary antibody (1: 500-1000) and 5% BSA overnight at 4° C. After washing with TB S-T three times, the membrane is incubated in 5% skim milk in TBS-T buffer containing the appropriate secondary anti-IgG antibody (1:5000) at room temperature for 1 h with constant shaking. The protein of interest is detected using Western Lightning®-ECL (Perkin Elmer, Waltham, Mass.) and visualized by exposure for various times (5-60 seconds). […]
# Hdm2/HdmX complex = Hdm2/HdmX complex (Homo sapiens, UniProt O15151+Q00987); assay: In vitro ubiquitination assay with recombinant proteins
# Hdm2/HdmX complex, sequence (Q00987 whole entry): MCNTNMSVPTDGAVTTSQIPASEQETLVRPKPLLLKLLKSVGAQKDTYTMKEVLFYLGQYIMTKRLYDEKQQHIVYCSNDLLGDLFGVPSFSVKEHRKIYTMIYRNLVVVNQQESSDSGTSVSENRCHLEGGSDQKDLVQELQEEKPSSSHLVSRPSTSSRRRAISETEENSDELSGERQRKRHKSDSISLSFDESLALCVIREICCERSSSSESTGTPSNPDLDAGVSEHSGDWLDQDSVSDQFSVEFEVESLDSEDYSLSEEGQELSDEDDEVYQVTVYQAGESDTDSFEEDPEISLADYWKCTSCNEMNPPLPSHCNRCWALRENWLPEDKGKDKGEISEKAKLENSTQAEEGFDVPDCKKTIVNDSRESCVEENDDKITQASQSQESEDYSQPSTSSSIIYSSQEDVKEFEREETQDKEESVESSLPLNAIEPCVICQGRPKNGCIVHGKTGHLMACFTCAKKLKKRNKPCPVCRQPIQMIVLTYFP
# Hdm2/HdmX complex, sequence (O15151 whole entry): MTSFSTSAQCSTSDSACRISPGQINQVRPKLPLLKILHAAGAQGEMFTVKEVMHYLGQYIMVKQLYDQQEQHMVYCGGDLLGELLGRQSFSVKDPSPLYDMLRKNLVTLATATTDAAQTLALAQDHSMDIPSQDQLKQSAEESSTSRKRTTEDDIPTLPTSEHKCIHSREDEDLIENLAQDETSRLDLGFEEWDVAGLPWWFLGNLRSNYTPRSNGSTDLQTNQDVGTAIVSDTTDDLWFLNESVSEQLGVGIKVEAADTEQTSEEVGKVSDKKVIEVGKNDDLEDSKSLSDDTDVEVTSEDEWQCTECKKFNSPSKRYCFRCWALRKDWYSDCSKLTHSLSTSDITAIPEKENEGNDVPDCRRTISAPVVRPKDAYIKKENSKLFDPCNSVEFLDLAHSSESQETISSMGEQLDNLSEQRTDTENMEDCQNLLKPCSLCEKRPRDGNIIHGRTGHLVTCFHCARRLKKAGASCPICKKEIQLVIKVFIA
# Method: The ubiquitinated p53 (Ub-p53) bands are detected as shown.
# The reaction products are resolved by SDS-PAGE followed by immunoblotting with p53 antibody DO-1. For HdmX ubiquitination in vitro, reactions are performed in a 50-μl volume. After completion of the reactions, 10 μl is used for direct immunoblotting to reveal HdmX ubiquitination (a smearing pattern) with FLAG antibody. 40 μl reactions are used for denaturing with 1% SDS followed by dilution with 800 μl of 20 mM Tris, pH7.5, 0.5% NP40, and 120 mM NaCl. The processed reaction products are used for immunoprecipitation with ubiquitin antibody followed by immunoblotting for FLAG-HdmX using anti-FLAG antibodies.
# [9] = IC50 of topotecan divided by IC50 of the drug
# Text for FaDu and SW620 tumors: Three types of human cancer xenografts are used in the studies: 1) from human head-&-neck cancer cell line (FaDu)-established xenografts; 2) from human colon cancer cell line (SW620)-established xenografts; and 3) from human acute lymphocytic leukemia cell line (EU-4)-established xenografts. All in vivo experiments use either nude or severe combined immunodeficiency (SCID) mice. Human tumor cell line-derived xenografts are initially established by subcutaneously injecting 1×10^6 cultured cancer cells. The derived tumors are then passed several generations in mice by transplanting 40-50 mg non-necrotic tumor mass via a trocar after the xenograft tumor reached ˜1000 mm^3. Treatment is initiated 7 days after tumor transplantation when the tumor reached 200-250 mm^3, at which time the treatment was designated as Day 0. Six to 12-week-old female SCID mice used in the studies. All animal experiments are performed in accordance with IACUC-approved animal protocols. Mice were housed 5 mice per cage with water and food ad libitum.
compound,measurement,setting,value
CC[C@@]1(O)C(=O)OCc2c1cc1n(c2=O)Cc2cc3cc4c(cc3nc2-1)OCO4 [FL118],IC50,[1]; DU-145,4.56 nM
same,"more effective than CPT, SN-38 and topotecan to inhibit cancer cell growth",[1]; parental Du145 cell line,10-40 fold
same,IC50,[2],0.0477 nM
same,RP,[2]; [9],15.67
same,IC50,HCT116-G7 cells,1.19 nM
same,RP,HCT116-G7 cells; [9],16.22
same,IC50,HCT116-C8 cells,0.0937 nM
same,RP,HCT116-C8 cells; [9],4041
same,hypoxia-induced HIF-1α expression,HIF-1α,abrogated by FL118 treatment
same,effect of forced expression of ABCC4 or ABCG2 on resistance,[3],fails to increase FL118 resistance
same,more effective to inhibit colony formation than topotecan,HCT-8 cells,> 100 time
same,effect on tumors with acquired irinotecan and topotecan resistance,[4],effectively regressed
same,MTD,in vivo; IV injection,5 mg/kg
same,body weight loss,in vivo; oral administration,Minimal Body Weight Loss
same,MTD,in vivo; oral,10 mg/kg
same,"cardiac output, ejection fraction and stroke volume",[5],no difference between vehicle control and FL118-treated SCID mice
same,lactone versus carboxylate form in solution,[6],fully in lactone form
same,antitumor activity on the same PDX on different mice,[7],very similar antitumor activity to the same tumor on different SCID mice
same,sensitivity of HUVEC cells,[8],insensitive to FL118 treatment
same,sensitivity of cancer cells,cancer cells,sensitive to FL118 treatment
same,mouse deaths,"FaDu and SW620 tumors; large tumors, stored FL118 solution, attributed to possible Tumor Lysis Syndrome",death of two mice on Day 37
same,antitumor activity of stored solution,"FaDu and SW620 tumors; ready-to-use solution stored at 4° C. for 6 months, 1.5 mg/kg weekly for 4 weeks",as effective as the newly formulated solution
same,PARP cleavage,PARP cleavage,more effective to induce PARP cleavage in p53 null HCT116 colon cancer cells than in p53 wild type HCT116 cells
same,Hdm2-mediated HdmX ubiquitination in vitro,Hdm2/HdmX complex,stimulates Hdm2-mediated HdmX ubiquitination in a concentration-dependent manner
same,Mdm2-MdmX mediated p53 polyubiquitination in vitro,Hdm2/HdmX complex,moderately inhibits

# From US10344037B2, “Use of the FL-one hundred eighteen core chemical structure platform to generate FL-one hundred eighteen derivatives for treatment of human disease” (priority 2014, dated 2019)
